Reference: US8563723B2, “Arylsulfonyl pyrazoline carboxamidine derivatives as 5-HT6 antagonists” (Abbott Healthcare Products, B.V., priority 2008, dated 2013)
Read-outs that look alike come from different tables or passages of the source.

Tests used:
5-HT6 receptor [1] = biological target: T1, 5-HT6 receptor (Homo sapiens, UniProt P50406); assay: In vitro affinity for human 5-HT6 receptors ([3H]-LSD binding, CHO cell membranes); parameters: host or cells: CHO/Gα16/mtAEQ/h5HT6-A1 cells; conditions: [3H]-LSD, membranes of CHO cells with human 5-HT6, read-out: 5-HT6 pKi (converted)
5-HT6 receptor [2] = biological target: T1, 5-HT6 receptor; assay: In vitro functional activity ((ant)agonism) on human 5-HT6 receptors, CHO-human-5HT6-Aequorin assay; type: cell-based; parameters: host or cells: CHO AequoScreen recombinant cell line (expresses mitochondrial targeted apo-Aequorin); conditions: antagonism of 10^-8 M α-methylserotonin induced luminescence; for Kb: read-out: 5-HT6 pA2 (converted)
in vitro [3] = conditions: rat, hepatocytes
in vitro [4] = conditions: human, hepatocytes
5-HT6 receptor [5] = biological target: T1, 5-HT6 receptor; conditions: 5-HT6 receptor (Sleight, 1998); cited from earlier work
[6] = Sleight, 1998; cited from earlier work
[7] = Rogers, 1999; cited from earlier work

T1 sequence (P50406 whole entry): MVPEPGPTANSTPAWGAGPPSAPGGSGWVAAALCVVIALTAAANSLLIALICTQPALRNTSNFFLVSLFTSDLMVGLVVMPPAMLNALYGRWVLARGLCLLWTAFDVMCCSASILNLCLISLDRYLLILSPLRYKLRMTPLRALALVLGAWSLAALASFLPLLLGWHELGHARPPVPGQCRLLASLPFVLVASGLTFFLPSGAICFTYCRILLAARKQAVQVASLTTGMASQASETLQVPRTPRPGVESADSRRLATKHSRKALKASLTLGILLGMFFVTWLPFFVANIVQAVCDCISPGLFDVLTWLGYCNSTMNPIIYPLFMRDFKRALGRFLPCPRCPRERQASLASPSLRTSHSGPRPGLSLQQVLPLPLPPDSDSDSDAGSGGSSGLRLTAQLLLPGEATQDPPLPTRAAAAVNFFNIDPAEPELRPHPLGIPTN

| Ki (5-HT6 receptor [1]; comparison table Example 6) [nM] | Ki (5-HT6 receptor [1]; main compound table) [nM] | Kb (5-HT6 receptor [2]; main compound table) [nM] | half-life at 1 μg/ml (in vitro [3]) [min] | half-life at 1 μg/ml (in vitro [4]) [min] | 5-HT6 pA2 (5-HT6 receptor [2]; main compound table) | Kb (5-HT6 receptor [2]; comparison table Example 6) [nM] | Structure (SMILES) | Ki (5-HT6 receptor [5]) [nM] | pharmacokinetics [6] | performance in the Morris water maze [7] |
| --- | --- | --- | --- | --- | --- | --- | --- | --- | --- | --- |
| 6.31 | 6.31 | 3.16 | 22 | 700 | – | – | CCN/C(=N\S(=O)(=O)c1ccc(N)c(Cl)c1)N1CC(C)(C)C=N1 [Compound 13, 4-Amino-3-chloro-N-[(4,4-dimethyl-4,5-dihydro-pyrazol-1-yl)-ethylamino-methylene]-benzenesulfonamide] | – | – | – |
| 1.58 | 1.58 | – | 17 | 51 | 9.0 | – | CCN/C(=N\S(=O)(=O)c1ccc(N)c(Cl)c1)N1CC2(C=N1)CCCC2 [Compound 14] | – | – | – |
| 3.16 | 3.16 | 2.51 | 19 | 354 | – | – | CCN/C(=N\S(=O)(=O)c1ccc(O)cc1)N1CC(CC)C=N1 (centres unmarked) [Compound 19, N-[Ethylamino-(4-ethyl-4,5-dihydro-pyrazol-1-yl)-methylene]-4-hydroxybenzenesulfonamide] | – | – | – |
| 12.6 | 12.6 | 5.01 | 33 | 1440 | – | – | CCN/C(=N\S(=O)(=O)c1ccc(O)cc1)N1CC(C)(C)C=N1 [Compound 22] | – | – | – |
| 63.1 | – | – | 16 | 68 | – | 100 | CCN/C(=N\S(=O)(=O)c1ccc(OC)cc1)N1CC(CC)C=N1 (centres unmarked) [Compound 81 from WO 2008/034863, reference compound] | – | – | – |
| – | – | – | – | – | – | – | CNc1cc(NS(=O)(=O)c2ccc(N)cc2)nc(NC)n1 [Ro 04-6790] | 50 | poor | – |
| – | – | – | – | – | – | – | CNc1cc(NS(=O)(=O)c2ccc(N)cc2)cc(NC)n1 [Ro 63-0563] | 12 | poor | – |
| – | – | – | – | – | – | – | COc1ccc(NS(=O)(=O)c2sc3ccc(Cl)cc3c2C)cc1N1CCNCC1 [SB-271046] | – | – | improved performance |
